Test results taken from patent publication EP0115821A1, “Fluoran compounds” (HODOGAYA CHEMICAL CO., LTD., priority 1983, dated 1984).

Assay: Solubility in organic solvents
Format: physicochemical
Details: at 50°C; for solubility (% by weight) in organic solvents: Hyzole-296: Hyzole-296 (diallylethane compound); for solubility (% by weight) in organic solvents: KMC-113: KMC-113 (alkyl naphthalene compound)
Description: The solubility of the fluoran compounds (B), (C) and (D) of the present invention in organic solvents was compared with that of the above-mentioned conventional fluoran compounds(A-1), (A-2) and (A-3), and the results are shown in Table 1.
Note: KMC-113 is an alkyl naphthalene compound manufactured by Kureha Chemical Industry Co. Ltd., and Hyzole-296 is a diallylethane compound manufactured by Nippon Petrochemical Co. Ltd. Both are organic solvents commonly used for pressure sensitive record sheets.

Structure (SMILES): CCN(CC)c1ccc2c(c1)Oc1ccc(NCc3ccc(Cl)cc3)cc1C21OC(=O)c2ccccc21 (stereo not drawn) [(A-3), 2-(4-chlorobenzylamino)-6-diethylamino fluoran]
- solubility (% by weight) in organic solvents: Hyzole-296: 3.10% by weight
- solubility (% by weight) in organic solvents: KMC-113: 1.90% by weight

Structure (SMILES): CCN(CC)c1ccc2c(c1)Oc1ccc(NCc3ccccc3)cc1C21OC(=O)c2ccccc21 (stereo not drawn) [Compound (A-1), 2-benzylamino-6-diethylamino fluoran]
- solubility (% by weight) in organic solvents: Hyzole-296: 1.40% by weight
- solubility (% by weight) in organic solvents: KMC-113: 0.44% by weight

Structure (SMILES): CCN(CC)c1ccc2c(c1)Oc1ccc(NCc3ccccc3Cl)cc1C21OC(=O)c2ccccc21 (stereo not drawn) [Compound (A-2), 2-(2-chlorobenzylamino)-6-diethylamino fluoran]
- solubility (% by weight) in organic solvents: Hyzole-296: 1.80% by weight
- solubility (% by weight) in organic solvents: KMC-113: 1.20% by weight

Structure (SMILES): CCCCN(CCCC)c1ccc2c(c1)Oc1ccc(NCc3ccccc3Cl)cc1C21OC(=O)c2ccccc21 (stereo not drawn) [Compound (B), 2-(2-chlorobenzylamino)-6-di-n-butylamino-fluoran]
- solubility (% by weight) in organic solvents: Hyzole-296: 4.80% by weight
- solubility (% by weight) in organic solvents: KMC-113: 3.30% by weight

Structure (SMILES): CCCCN(CCCC)c1ccc2c(c1)Oc1ccc(NCc3cccc(Cl)c3)cc1C21OC(=O)c2ccccc21 (stereo not drawn) [Compound (C), 2-(3-chlorobenzylamino)-6-di-n-butylamino-fluoran]
- solubility (% by weight) in organic solvents: Hyzole-296: 6.30% by weight
- solubility (% by weight) in organic solvents: KMC-113: 4.20% by weight

Structure (SMILES): CCCCN(CCCC)c1ccc2c(c1)Oc1ccc(NCc3ccc(Cl)cc3)cc1C21OC(=O)c2ccccc21 (stereo not drawn) [Compound (D), 2-(4-chlorobenzylamino)-6-di-n-butylamino-fluoran]
- solubility (% by weight) in organic solvents: Hyzole-296: 7.20% by weight
- solubility (% by weight) in organic solvents: KMC-113: 3.80% by weight
